Experimental data taken from PubChem BioAssay (NCI).
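Each compound was tested at five concentrations against cells in 96-well plates for 48 hours. GI50 is the concentration that inhibits growth by half. The concentration for full growth arrest is given as TGI.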 Where a SMILES comes first, the peptide text is derived from it. The star is where a group is joined. Boc = CC(C)(C)OC(=O)*

Legend:
Assay in all cases: growth of human tumour cells (NCI), 48 h
SK-MEL-5 melanoma = test system: SK-MEL-5 melanoma
SNB-19 CNS = test system: SNB-19 CNS
EKVX NSCLC = test system: EKVX NSCLC
OVCAR-8 ovarian = test system: OVCAR-8 ovarian
HOP-92 NSCLC = test system: HOP-92 NSCLC
CCRF-CEM leukemia = test system: CCRF-CEM leukemia
HCT-116 colon = test system: HCT-116 colon
NCI-H23 lung = test system: NCI-H23 lung
K-562 leukemia = test system: K-562 leukemia
A498 renal = test system: A498 renal

CCOC(=O)C(C)(C)/C=C\C(Cl)=C(Cl)Cl
TGI (SK-MEL-5 melanoma): > 100 µM
TGI (SNB-19 CNS): > 100 µM
TGI (EKVX NSCLC): > 100 µM
TGI (OVCAR-8 ovarian): > 100 µM
TGI (HOP-92 NSCLC): > 100 µM
TGI (CCRF-CEM leukemia): > 100 µM
TGI (HCT-116 colon): > 100 µM
TGI (NCI-H23 lung): > 100 µM
TGI (K-562 leukemia): > 100 µM

CCc1n[nH]c(=O)n1NC(=O)c1ccccc1C(=O)O
TGI (SK-MEL-5 melanoma): > 100 µM
TGI (SNB-19 CNS): > 100 µM
TGI (EKVX NSCLC): > 100 µM
TGI (OVCAR-8 ovarian): > 100 µM
TGI (HOP-92 NSCLC): > 100 µM
TGI (CCRF-CEM leukemia): > 100 µM
TGI (HCT-116 colon): > 100 µM
TGI (NCI-H23 lung): > 100 µM
TGI (K-562 leukemia): > 100 µM

O=c1[nH]c(Nc2cccc(Br)c2)nc2nc[nH]c12
TGI (SK-MEL-5 melanoma): > 100 µM
TGI (SNB-19 CNS): > 100 µM
TGI (EKVX NSCLC): > 100 µM
TGI (OVCAR-8 ovarian): > 100 µM
TGI (HOP-92 NSCLC): > 100 µM
TGI (CCRF-CEM leukemia): > 100 µM
TGI (HCT-116 colon): > 100 µM
TGI (NCI-H23 lung): > 100 µM
TGI (K-562 leukemia): > 100 µM

CC1(C)C[C@H](O)[C@H](O)[C@]23C(=O)O[C@H](O)[C@H]2C(C=O)=CC[C@@H]13
TGI (SK-MEL-5 melanoma): > 100 µM
TGI (SNB-19 CNS): > 100 µM
TGI (EKVX NSCLC): > 100 µM
TGI (OVCAR-8 ovarian): > 100 µM
TGI (CCRF-CEM leukemia): > 100 µM
TGI (HCT-116 colon): > 100 µM
TGI (NCI-H23 lung): > 100 µM
TGI (K-562 leukemia): > 100 µM

CC(NC(=O)C(N)CC(=O)O)NC(=O)N1CCOCC1 (stereo unspecified)
TGI (SK-MEL-5 melanoma): > 100 µM
TGI (SNB-19 CNS): > 100 µM
TGI (A498 renal): > 100 µM
TGI (EKVX NSCLC): > 100 µM
TGI (OVCAR-8 ovarian): > 100 µM
TGI (CCRF-CEM leukemia): > 100 µM
TGI (HCT-116 colon): > 100 µM
TGI (NCI-H23 lung): > 100 µM
TGI (K-562 leukemia): > 100 µM

COC(=O)c1ccc(CCc2cc(O)c(Br)cc2O)cc1
TGI (SK-MEL-5 melanoma): 23.7 µM
TGI (SNB-19 CNS): 33.1 µM
TGI (A498 renal): 40.7 µM
TGI (EKVX NSCLC): 31.3 µM
TGI (OVCAR-8 ovarian): 30.9 µM
TGI (HOP-92 NSCLC): 28.2 µM
TGI (CCRF-CEM leukemia): 5.78 µM
TGI (HCT-116 colon): 14.3 µM
TGI (NCI-H23 lung): 15.4 µM

COc1ccc(Cl)cc1NC(=O)c1c(NC(=O)C(F)(F)C(F)(F)F)sc2c1CCCCC2
GI50 (SK-MEL-5 melanoma): 0.242 µM
TGI (SK-MEL-5 melanoma): 0.585 µM
GI50 (SNB-19 CNS): 1.57 µM
TGI (SNB-19 CNS): > 100 µM
GI50 (A498 renal): 0.312 µM
TGI (A498 renal): 2.06 µM
GI50 (OVCAR-8 ovarian): 2.02 µM
TGI (OVCAR-8 ovarian): > 100 µM
GI50 (HOP-92 NSCLC): 0.263 µM
TGI (HOP-92 NSCLC): 0.947 µM
GI50 (CCRF-CEM leukemia): 0.769 µM
TGI (CCRF-CEM leukemia): > 100 µM
GI50 (HCT-116 colon): 1.3 µM
TGI (HCT-116 colon): 5.67 µM
GI50 (NCI-H23 lung): 1.54 µM
TGI (NCI-H23 lung): 7.38 µM
GI50 (K-562 leukemia): 0.663 µM
TGI (K-562 leukemia): > 100 µM

Cn1c2ccccc2n2c(=O)c3cccnc3c(C#N)c12
TGI (SK-MEL-5 melanoma): > 100 µM
TGI (A498 renal): > 100 µM
TGI (EKVX NSCLC): > 100 µM
TGI (OVCAR-8 ovarian): > 100 µM
TGI (HOP-92 NSCLC): > 100 µM
TGI (HCT-116 colon): > 100 µM
TGI (NCI-H23 lung): > 100 µM

S=C(c1c[nH]c2ccccc12)N1CCN(c2ccccc2)CC1
TGI (SK-MEL-5 melanoma): > 100 µM
TGI (SNB-19 CNS): > 100 µM
TGI (A498 renal): > 100 µM
TGI (EKVX NSCLC): > 100 µM
TGI (OVCAR-8 ovarian): > 100 µM
TGI (CCRF-CEM leukemia): > 100 µM
TGI (HCT-116 colon): > 100 µM
TGI (NCI-H23 lung): > 100 µM
TGI (K-562 leukemia): > 100 µM

Nc1nc(N)c2nnn(C[C@H]3CC[C@@H](CO)C3)c2n1
TGI (SNB-19 CNS): > 100 µM
TGI (A498 renal): > 100 µM
TGI (EKVX NSCLC): > 100 µM
TGI (OVCAR-8 ovarian): > 100 µM
TGI (HOP-92 NSCLC): > 100 µM
TGI (CCRF-CEM leukemia): > 100 µM
TGI (HCT-116 colon): > 100 µM
TGI (NCI-H23 lung): > 100 µM
TGI (K-562 leukemia): > 100 µM

CCOC(=O)/C=C(\N=P(c1ccccc1)(c1ccccc1)c1ccccc1)C(F)(F)C(F)(F)C(F)(F)C(F)(F)C(F)(F)F
TGI (SK-MEL-5 melanoma): > 100 µM
TGI (SNB-19 CNS): > 100 µM
TGI (A498 renal): 72.4 µM
TGI (HOP-92 NSCLC): > 100 µM
TGI (CCRF-CEM leukemia): > 100 µM
TGI (HCT-116 colon): > 100 µM
TGI (NCI-H23 lung): > 100 µM
TGI (K-562 leukemia): > 100 µM

CCOC(=O)C1(C(=O)OCC)CC(=O)[C@@]2(C1)OCC[C@H]1OC(=O)C[C@H]12
TGI (SK-MEL-5 melanoma): > 100 µM
TGI (SNB-19 CNS): > 100 µM
TGI (A498 renal): > 100 µM
TGI (EKVX NSCLC): > 100 µM
TGI (OVCAR-8 ovarian): > 100 µM
TGI (HOP-92 NSCLC): > 100 µM
TGI (CCRF-CEM leukemia): > 100 µM
TGI (HCT-116 colon): > 100 µM
TGI (NCI-H23 lung): > 100 µM

COc1ccc(CCc2ccc(O)c(C(=O)O)c2)cc1OC
TGI (SK-MEL-5 melanoma): > 100 µM
TGI (SNB-19 CNS): > 100 µM
TGI (EKVX NSCLC): > 100 µM
TGI (OVCAR-8 ovarian): > 100 µM
TGI (HOP-92 NSCLC): > 100 µM
TGI (CCRF-CEM leukemia): > 100 µM
TGI (HCT-116 colon): > 100 µM
TGI (NCI-H23 lung): > 100 µM
TGI (K-562 leukemia): > 100 µM

C=Cc1cc2c(cc1O)CC[C@@H]1[C@@H]2CC[C@]2(C)[C@@H](O)CC[C@@H]12
TGI (SK-MEL-5 melanoma): 15.7 µM
TGI (SNB-19 CNS): 13.6 µM
TGI (A498 renal): 39.1 µM
TGI (EKVX NSCLC): 29 µM
TGI (CCRF-CEM leukemia): 17.2 µM
GI50 (HCT-116 colon): 2.57 µM
TGI (HCT-116 colon): 12.1 µM
TGI (NCI-H23 lung): 14.3 µM
TGI (K-562 leukemia): 20.4 µM

CCOCC(NC(=O)C(CC(C)C)NC(=O)OC(C)(C)C)C(N)=O (stereo not drawn) (Boc-Leu-Ser(Et)-NH2; configuration not given here)
TGI (SK-MEL-5 melanoma): > 100 µM
TGI (SNB-19 CNS): > 100 µM
TGI (A498 renal): > 100 µM
TGI (EKVX NSCLC): > 100 µM
TGI (OVCAR-8 ovarian): > 100 µM
TGI (HOP-92 NSCLC): > 100 µM
TGI (CCRF-CEM leukemia): > 100 µM
TGI (HCT-116 colon): > 100 µM
TGI (NCI-H23 lung): > 100 µM

O=c1c(-c2ccccc2Cl)coc2cc(F)ccc12
TGI (SK-MEL-5 melanoma): > 100 µM
TGI (SNB-19 CNS): > 100 µM
TGI (A498 renal): 47.2 µM
TGI (EKVX NSCLC): > 100 µM
TGI (OVCAR-8 ovarian): > 100 µM
TGI (HOP-92 NSCLC): 87.1 µM
TGI (CCRF-CEM leukemia): > 100 µM
TGI (HCT-116 colon): > 100 µM
TGI (NCI-H23 lung): > 100 µM

CC1C(c2ccc3c(c2)OCO3)c2cc3c(cc2OC1N1CCCCC1)OCO3 (stereo unspecified)
TGI (SK-MEL-5 melanoma): > 100 µM
TGI (SNB-19 CNS): > 100 µM
TGI (EKVX NSCLC): > 100 µM
TGI (OVCAR-8 ovarian): > 100 µM
TGI (CCRF-CEM leukemia): > 100 µM
TGI (HCT-116 colon): > 100 µM
TGI (NCI-H23 lung): > 100 µM
TGI (K-562 leukemia): > 100 µM

O=c1c(O)c(-c2cc(O)c(O)cc2O)oc2cc(O)c(C3OC(CO)C(O)C(O)C3O)c(O)c12 (stereo unspecified)
TGI (SNB-19 CNS): > 100 µM
TGI (A498 renal): > 100 µM
TGI (EKVX NSCLC): > 100 µM
TGI (OVCAR-8 ovarian): > 100 µM
TGI (HOP-92 NSCLC): > 100 µM
TGI (HCT-116 colon): > 100 µM
TGI (K-562 leukemia): > 100 µM

COc1cc2cc(C(=O)N3CC(CCl)c4c3cc(N(C)C)c3ccccc43)[nH]c2c(OC)c1OC (stereo unspecified)
TGI (SK-MEL-5 melanoma): 0.0241 µM
TGI (SNB-19 CNS): 10.6 µM
TGI (A498 renal): 0.0174 µM
TGI (EKVX NSCLC): 0.0245 µM
TGI (OVCAR-8 ovarian): 0.0206 µM
TGI (HOP-92 NSCLC): > 53.9 µM
TGI (HCT-116 colon): > 100 µM
TGI (NCI-H23 lung): 0.0127 µM
TGI (K-562 leukemia): 0.0477 µM

CN(C)CCNC(=O)c1ccc(NCCCN(C)CCCNc2ccc(C(=O)NCCN(C)C)c3[nH]c4ccc([N+](=O)[O-])cc4c(=O)c23)c2c(=O)c3cc([N+](=O)[O-])ccc3[nH]c12
TGI (SK-MEL-5 melanoma): 1.14 µM
TGI (SNB-19 CNS): 0.649 µM
TGI (A498 renal): 0.537 µM
TGI (OVCAR-8 ovarian): 1.3 µM
TGI (HOP-92 NSCLC): 0.933 µM
TGI (CCRF-CEM leukemia): 0.145 µM
TGI (HCT-116 colon): 0.644 µM
TGI (NCI-H23 lung): 0.537 µM
TGI (K-562 leukemia): 1.83 µM

Cc1ccc(Nc2sc(C)cc2C#N)c([N+](=O)[O-])c1
TGI (SNB-19 CNS): > 100 µM
TGI (A498 renal): > 100 µM
TGI (EKVX NSCLC): > 100 µM
TGI (OVCAR-8 ovarian): > 100 µM
TGI (HOP-92 NSCLC): > 100 µM
TGI (CCRF-CEM leukemia): > 100 µM
TGI (HCT-116 colon): > 100 µM
TGI (NCI-H23 lung): > 100 µM
TGI (K-562 leukemia): > 100 µM

CCOC(=O)COc1c(OC)cc(C2C3=C(COC3=O)Oc3cc4c(cc32)OCO4)cc1OC (stereo unspecified)
TGI (SK-MEL-5 melanoma): 13.8 µM
TGI (SNB-19 CNS): > 100 µM
TGI (EKVX NSCLC): > 100 µM
TGI (OVCAR-8 ovarian): 47 µM
TGI (HOP-92 NSCLC): > 45.1 µM
TGI (CCRF-CEM leukemia): 0.965 µM
TGI (HCT-116 colon): > 100 µM
TGI (NCI-H23 lung): 14.2 µM
TGI (K-562 leukemia): 12.2 µM

Fc1cc(-c2ncc(Cl)cc2Cl)c2cccccc1-2
TGI (SK-MEL-5 melanoma): > 100 µM
TGI (SNB-19 CNS): > 100 µM
TGI (EKVX NSCLC): > 100 µM
TGI (OVCAR-8 ovarian): > 100 µM
TGI (HCT-116 colon): > 100 µM
TGI (NCI-H23 lung): > 100 µM
